Experimental data: US20220363719A1, “Reverse Amide-Linked Melanocortin Receptor-Specific Cyclic Peptides” (Palatin Technologies, Inc., priority 2020, published 2022)
Where a SMILES comes first, the peptide text is derived from it. Bridges are numbered along the chain shown (N, C = ends). [ ]: non-standard residue; d: D form. The star is where a group is joined. ξ: configuration not given here. d1Nal = N[C@H](Cc1cccc2ccccc12)C(=O)O; Nle = CCCC[C@H](N)C(=O)O; Orn = NCCC[C@H](N)C(=O)O; Dab = NCC[C@H](N)C(=O)O; ξHyp = O=C(O)C1CC(O)CN1; Dap = NC[C@H](N)C(=O)O; Hexanoyl = CCCCCC(=O)*; Ahx = NCCCCCC(=O)O; Bn = c1ccc(C*)cc1; GABA = NCCCC(=O)O; βAla = NCCC(=O)O

What was measured:
Assay type in all cases: cell-based
[1] = target: T1, hMC5r (Homo sapiens, UniProt P33032); test: cAMP agonist activity assay performed at CEREP (HTRF), MC5; conditions: determined by CEREP, CHO-K1 cells; for EC50: cAMP HTRF; for Emax: control Alpha-MSH, read-out: Emax percent hMC5r* (percent of the maximal response obtained with the positive control)
T1 construct: Eurofins CEREP SA
Experimental: (§1) Evaluation of the agonist activity of compounds at the melanocortin receptors was determined by measuring their effects on cAMP production using the HTRF detection method at CEREP (Eurofins CEREP SA, Celle-Lévescault, France). The cells were suspended in HBSS buffer (Invitrogen) complemented with 20 mM HEPES (pH 7.4) and 500 μM IBMX, then distributed in microplates and incubated in the presence of HBSS (basal control), the test compound or the reference agonist. Incubation time, temperature, cell number, reference agonist and cell line information are included in the Table 1 below. For stimulated control measurement, separate assay wells contain reference compound. Following incubation, the cells are lysed and the fluorescence acceptor (D2-labeled cAMP) and fluorescence donor (anti-cAMP antibody labeled with europium cryptate) were added. After 60 minutes at room temperature, the fluorescence transfer was measured at excitation wavelength 337 nm and emission wavelengths 620 and 665 nm using a microplate reader (Envision, Perkin Elmer). The cAMP concentration was determined by dividing the signal measured at 665 nm by that measured at 620 nm (ratio).
(§2) The results are expressed as a percent of the control response to 1 μM of the reference. The standard reference agonist is tested in each experiment at several concentrations to generate a concentration-response curve from which its EC50 value is calculated.

[2] = target: hMC3r (Homo sapiens, UniProt P41968); test: Alternative assay for agonist activity (intracellular cAMP), HEK-293 cells, recombinant MC3r; set-up: expressed in transfected cells; host or cells: HEK-293; conditions: for Emax: HEK293, not CEREP, reference NDP-α-MSH, read-out: Emax percent hMC3r (percent of the maximal response obtained with the positive control); for EC50: not CEREP, cAMP HTRF
Experimental: (§3) Accumulation of intracellular cAMP was examined as a measure of the ability of the peptides to elicit a functional response in either HEK-293 cells that express recombinant MC3r or MC4r or B16-F10 (mouse) and HBL (human) cell lines that express native MC1 r. Confluent cells were detached from culture plates by incubation in enzyme-free cell dissociation buffer. Dispersed cells were suspended in Hank's Balanced Salt Solution containing 10 mM HEPES (pH 7.5), 1 mM MgCl2, 1 mM glutamine, 0.5% albumin and 0.3 mM 3-isobutyl-1-methyl-xanthine (IBMX), a phosphodiesterase inhibitor. The cells were dispensed into 96-well plates at a density of 0.5×10^5 cells per well and pre-incubated for 10 minutes. Cells were exposed for 15 minutes at 37° C. to peptides dissolved in DMSO (final DMSO concentration of 1%) at a concentration range of 0.05-5000 nM in a total assay volume of 200 μL. NDP-α-MSH was used as the reference agonist. cAMP levels were determined by an HTRF® cAMP cell-based assay system from Cisbio Bioassays utilizing cryptate-labeled anti-cAMP and D2-labeled cAMP, with plates read on a Perkin-Elmer Victor plate reader at […]. Data analysis was performed by nonlinear regression analysis with Graph-Pad Prism® software. The maximum efficacies of the test peptides were compared to that achieved by the reference melanocortin agonist NDP-α-MSH.

[3] = target: hMC4r (Homo sapiens, UniProt P32245); test: Alternative assay for agonist activity (intracellular cAMP), HEK-293 cells, recombinant MC4r; set-up: expressed in transfected cells; host or cells: HEK-293; conditions: for Emax: HEK293, not CEREP, reference NDP-α-MSH, read-out: Emax percent hMC4r (percent of the maximal response obtained with the positive control); for EC50: not CEREP, cAMP HTRF
Experimental: as §3

[4] = target: T2, mMC1r (Mus musculus, UniProt Q01727); test: Alternative assay for agonist activity (intracellular cAMP), B16-F10 cells, native MC1r; set-up: B16-F10 (mouse) and HBL (human) cell lines that express native MC1 r; endogenous in cells; host or cells: B16-F10 mouse melanoma cells; conditions: not CEREP; for EC50: cAMP HTRF; for Emax: reference NDP-α-MSH, read-out: Emax percent mMC1r (percent of the maximal response obtained with the positive control)
Experimental: as §3

[5] = target: T2, mMC1r; test: cAMP agonist activity assay performed at CEREP (HTRF), MC1; conditions: determined by CEREP, B16-F1 cells
Experimental: as §1, §2

[6] = target: T3, hMC1r (Homo sapiens, UniProt Q01726); test: Alternative assay for agonist activity (intracellular cAMP), HBL cells, native MC1r; conditions: not CEREP
T3 construct: B16-F10 (mouse) and HBL (human) cell lines that express native MC1 r; endogenous in cells; host or cells: HBL human melanoma cells
Experimental: as §3

T1 sequence (P33032 whole entry): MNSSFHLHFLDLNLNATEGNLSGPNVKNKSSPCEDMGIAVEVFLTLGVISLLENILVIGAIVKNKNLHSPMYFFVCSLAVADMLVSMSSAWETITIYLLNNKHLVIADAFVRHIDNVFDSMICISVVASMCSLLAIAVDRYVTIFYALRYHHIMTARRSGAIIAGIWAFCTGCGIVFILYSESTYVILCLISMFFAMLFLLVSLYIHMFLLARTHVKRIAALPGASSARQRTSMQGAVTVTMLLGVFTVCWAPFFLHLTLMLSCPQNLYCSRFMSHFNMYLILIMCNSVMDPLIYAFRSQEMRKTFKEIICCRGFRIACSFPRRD
hMC4r, sequence (P32245 whole entry): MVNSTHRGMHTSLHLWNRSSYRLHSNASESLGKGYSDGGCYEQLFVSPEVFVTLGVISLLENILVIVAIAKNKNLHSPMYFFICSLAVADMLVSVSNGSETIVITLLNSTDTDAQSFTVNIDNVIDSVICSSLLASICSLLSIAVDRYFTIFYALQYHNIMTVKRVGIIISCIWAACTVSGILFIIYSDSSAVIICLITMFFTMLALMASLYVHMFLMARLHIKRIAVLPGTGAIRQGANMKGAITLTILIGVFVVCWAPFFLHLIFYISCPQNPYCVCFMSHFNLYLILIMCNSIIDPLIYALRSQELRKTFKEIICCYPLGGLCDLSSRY
hMC3r, sequence (P41968 whole entry): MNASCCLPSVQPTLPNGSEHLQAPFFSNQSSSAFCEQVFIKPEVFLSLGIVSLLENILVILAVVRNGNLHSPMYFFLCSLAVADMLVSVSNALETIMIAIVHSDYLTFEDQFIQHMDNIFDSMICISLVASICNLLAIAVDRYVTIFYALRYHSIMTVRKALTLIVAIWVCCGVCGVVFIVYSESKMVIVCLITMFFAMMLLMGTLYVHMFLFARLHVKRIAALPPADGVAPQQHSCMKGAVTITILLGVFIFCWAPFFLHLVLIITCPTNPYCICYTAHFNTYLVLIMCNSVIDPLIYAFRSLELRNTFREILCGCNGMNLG
T2 sequence (Q01727 whole entry): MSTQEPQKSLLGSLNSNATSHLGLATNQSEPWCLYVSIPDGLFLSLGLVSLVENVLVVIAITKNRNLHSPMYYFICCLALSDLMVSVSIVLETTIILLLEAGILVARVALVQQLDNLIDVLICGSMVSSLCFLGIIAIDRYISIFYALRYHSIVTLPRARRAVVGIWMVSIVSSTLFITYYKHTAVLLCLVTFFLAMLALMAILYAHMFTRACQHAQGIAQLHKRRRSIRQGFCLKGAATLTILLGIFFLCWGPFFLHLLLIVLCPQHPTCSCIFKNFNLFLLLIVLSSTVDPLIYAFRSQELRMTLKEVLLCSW
T3 sequence (Q01726 whole entry): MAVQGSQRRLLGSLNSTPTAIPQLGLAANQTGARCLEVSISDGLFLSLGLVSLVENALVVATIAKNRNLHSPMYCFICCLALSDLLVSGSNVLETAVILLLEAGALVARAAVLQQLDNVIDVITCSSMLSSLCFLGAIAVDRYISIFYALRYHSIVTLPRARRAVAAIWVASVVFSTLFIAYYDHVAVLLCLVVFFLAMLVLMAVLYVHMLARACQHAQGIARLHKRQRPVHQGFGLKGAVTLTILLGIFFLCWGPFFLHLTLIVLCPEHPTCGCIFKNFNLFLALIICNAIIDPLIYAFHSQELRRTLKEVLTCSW

## CC(=O)N[C@@H](CCCNC(=N)N)C(=O)N[C@H]1CNC(=O)CCCCCNC(=O)[C@H](Cc2c[nH]c3ccccc23)NC(=O)[C@H](CCCNC(=N)N)NC(=O)[C@@H](Cc2ccccc2)NC(=O)[C@H](CC(N)=O)NC1=O [Peptide 12] (Ac-R[Dap]N[dF]RW[Ahx]; lactam 2-C)
[1]
  EC50: > 10000 nM
  Emax: 20%
[2]
  Emax: 48%
  EC50: 55 nM
[3]
  Emax: 116%
  EC50: 2 nM
[4]
  EC50: 206 nM
  Emax: 95%

## CCCC[C@H](NC(C)=O)C(=O)N[C@H]1CCCNC(=O)CNC(=O)[C@H](Cc2c[nH]c3ccccc23)NC(=O)[C@H](CCCNC(=N)N)NC(=O)[C@@H](Cc2cccc3ccccc23)NC(=O)C2CC(OCc3ccccc3)CN2C1=O (stereo partly shown) [Peptide 4] (Ac-[Nle][Orn][ξHyp](Bn)[d1Nal]RWG; lactam 2-C)
[1]
  EC50: 10 nM
  Emax: 118%
[2]
  Emax: 10%
  EC50: > 10000 nM
[3]
  Emax: 38%
  EC50: 15 nM
[4]
  EC50: 26 nM
  Emax: 67%

## CC(=O)N[C@@H](CCCNC(=N)N)C(=O)N[C@H]1CCNC(=O)CCCCNC(=O)[C@H](Cc2c[nH]c3ccccc23)NC(=O)[C@H](CCCNC(=N)N)NC(=O)[C@@H](Cc2ccccc2)NC(=O)[C@H](Cc2c[nH]cn2)NC1=O [Peptide 9]
[1]
  EC50: > 10000 nM
  Emax: 32%
[2]
  Emax: 104%
  EC50: 0.5 nM
[3]
  Emax: 105%
  EC50: 0.22 nM
[4]
  EC50: 0.9 nM
  Emax: 79%

## CC(=O)N[C@@H](CCCNC(=N)N)C(=O)N[C@H]1CCCCNC(=O)CCNC(=O)[C@H](Cc2c[nH]c3ccccc23)NC(=O)[C@H](CCCNC(=N)N)NC(=O)[C@@H](Cc2ccccc2)NC(=O)[C@H](Cc2c[nH]cn2)NC1=O [Peptide 14] (Ac-RKH[dF]RW[βAla]; lactam 2-C)
[1]
  EC50: > 10000 nM
  Emax: 22%
[2]
  Emax: 106%
  EC50: 0.2 nM
[3]
  Emax: 83%
  EC50: 0.15 nM
[4]
  EC50: 0.79 nM
  Emax: 111%

## CC(=O)N[C@@H](CCCNC(=N)N)C(=O)N[C@H]1CNC(=O)CCCCCNC(=O)[C@H](Cc2c[nH]c3ccccc23)NC(=O)[C@H](CCCNC(=N)N)NC(=O)[C@@H](Cc2ccccc2)NC(=O)[C@H](Cc2c[nH]cn2)NC1=O [Peptide 11]
[1]
  EC50: > 10000 nM
  Emax: 13%
[2]
  Emax: 98%
  EC50: 7 nM
[3]
  Emax: 99%
  EC50: 0.19 nM
[4]
  EC50: 2 nM
  Emax: 93%

## CCCCCC(=O)N[C@H]1CNC(=O)CNC(=O)[C@H](CCCNC(=N)N)NC(=O)[C@@H](Cc2ccccc2)NC(=O)[C@H](Cc2c[nH]cn2)NC1=O [Peptide 17] (Hexanoyl-[Dap]H[dF]RG; lactam 1-C)
[5]; cAMP HTRF
  EC50: 1300 nM
[5]; control NDP-alpha-MSH, read-out: Emax percent mMC1r* (percent of the maximal response obtained with the positive control)
  Emax: 83%
[1]
  EC50: > 10000 nM
  Emax: -0.5%
[6]; cAMP HTRF
  EC50: 10 nM
[6]; reference NDP-α-MSH, read-out: Emax percent hMC1r (percent of the maximal response obtained with the positive control)
  Emax: 94%
[2]
  Emax: 12%
  EC50: > 10000 nM
[3]
  Emax: 14%
  EC50: 7800 nM
[4]
  EC50: 1000 nM
  Emax: 84%

## CCCC[C@H](NC(C)=O)C(=O)N[C@H]1CCNC(=O)CCNC(=O)[C@H](Cc2c[nH]c3ccccc23)NC(=O)[C@H](CCCNC(=N)N)NC(=O)[C@@H](Cc2cccc3ccccc23)NC(=O)C2CC(OCc3ccccc3)CN2C1=O (stereo partly shown) [Peptide 5] (Ac-[Nle][Dab][ξHyp](Bn)[d1Nal]RW[βAla]; lactam 2-C)
[1]
  EC50: 0.74 nM
  Emax: 77%
[2]
  Emax: 5%
  EC50: > 10000 nM
[3]
  Emax: 32%
  EC50: 11 nM
[4]
  EC50: 5 nM
  Emax: 75%

## CCCC[C@H](NC(C)=O)C(=O)N[C@H]1CNC(=O)CNC(=O)[C@H](Cc2c[nH]c3ccccc23)NC(=O)[C@H](CCCNC(=N)N)NC(=O)[C@@H](Cc2cccc3ccccc23)NC(=O)C2CC(OCc3ccccc3)CN2C1=O (stereo partly shown) [Peptide 6] (Ac-[Nle][Dap][ξHyp](Bn)[d1Nal]RWG; lactam 2-C)
[2]
  Emax: 6%
  EC50: > 10000 nM
[3]
  Emax: 36%
  EC50: 87 nM
[4]
  EC50: 521 nM
  Emax: 34%

## CCCC[C@H](NC(C)=O)C(=O)N[C@H]1CCCCNC(=O)CCNC(=O)[C@H](Cc2c[nH]c3ccccc23)NC(=O)[C@H](CCCNC(=N)N)NC(=O)[C@@H](Cc2cccc3ccccc23)NC(=O)C2CC(OCc3ccccc3)CN2C1=O (stereo partly shown) [Peptide 2] (Ac-[Nle]K[ξHyp](Bn)[d1Nal]RW[βAla]; lactam 2-C)
[1]
  EC50: 0.23 nM
  Emax: 96%
[2]
  Emax: 14%
  EC50: > 10000 nM
[3]
  Emax: 33%
  EC50: 5 nM
[4]
  EC50: 2 nM
  Emax: 61%

## CC(=O)N[C@@H](CCCNC(=N)N)C(=O)N[C@H]1CCCNC(=O)CCCNC(=O)[C@H](Cc2c[nH]c3ccccc23)NC(=O)[C@H](CCCNC(=N)N)NC(=O)[C@@H](Cc2ccccc2)NC(=O)[C@H](CC(N)=O)NC1=O [Peptide 8] (Ac-R[Orn]N[dF]RW[GABA]; lactam 2-C)
[1]
  EC50: > 10000 nM
  Emax: 41%
[2]
  Emax: 75%
  EC50: 20 nM
[3]
  Emax: 101%
  EC50: 1 nM
[4]
  EC50: 230 nM
  Emax: 74%

## CCCC[C@H](NC(C)=O)C(=O)N[C@H]1CCCNC(=O)CCNC(=O)[C@H](Cc2c[nH]c3ccccc23)NC(=O)[C@H](CCCNC(=N)N)NC(=O)[C@@H](Cc2cccc3ccccc23)NC(=O)C2CC(OCc3ccccc3)CN2C1=O (stereo partly shown) [Peptide 3] (Ac-[Nle][Orn][ξHyp](Bn)[d1Nal]RW[βAla]; lactam 2-C)
[1]
  EC50: 0.2 nM
  Emax: 93%
[2]
  Emax: 12%
  EC50: > 10000 nM
[3]
  Emax: 31%
  EC50: 5 nM
[4]
  EC50: 2 nM
  Emax: 67%

## CC(=O)N[C@@H](CCCNC(=N)N)C(=O)N[C@H]1CCCCNC(=O)CCNC(=O)[C@H](Cc2c[nH]c3ccccc23)NC(=O)[C@H](CCCNC(=N)N)NC(=O)[C@@H](Cc2ccccc2)NC(=O)[C@H](CC(N)=O)NC1=O [Peptide 15] (Ac-RKN[dF]RW[βAla]; lactam 2-C)
[1]
  EC50: 140 nM
  Emax: 44%
[2]
  Emax: 90%
  EC50: 2 nM
[3]
  Emax: 94%
  EC50: 0.3 nM
[4]
  EC50: 140 nM
  Emax: 102%

## CC(=O)N[C@@H](CCCNC(=N)N)C(=O)N[C@H]1CCCNC(=O)CCCNC(=O)[C@H](Cc2c[nH]c3ccccc23)NC(=O)[C@H](CCCNC(=N)N)NC(=O)[C@@H](Cc2ccccc2)NC(=O)[C@H](Cc2c[nH]cn2)NC1=O [Peptide 13]
[1]
  EC50: > 10000 nM
  Emax: 25%
[2]
  Emax: 101%
  EC50: 0.4 nM
[3]
  Emax: 87%
  EC50: 0.27 nM
[4]
  EC50: 1 nM
  Emax: 80%
